Legend:
Type in all cases: cell-based
[1] = molecular target: T1, EGFR (HCC827 cells) (Homo sapiens, UniProt P00533, DEL746-750); assay: EGFR degradation HTRF assay, HCC827 cells; details: HCC827, 16h treatment; for Dmax: maximum percentage of degradation
T1 construct: endogenous in cells; host or cells: HCC827
Summary of the method: (§1)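 EGFR remaining after a 16 h, 37 °C exposure (8 doses, 5-fold steps from 10 uM final, 0.2% DMSO) was quantified by HTRF antibodies in cell lysate. Percent inhibition relative to DMSO control was fitted by four-parameter logistic to give DC50; Dmax denotes maximal degradation.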

[2] = molecular target: T2, EGFR L858R/T790M/C797S (BaF3-LTC cells) (Homo sapiens, UniProt P00533, C797S/L858R/T790M); assay: EGFR degradation HTRF assay, BaF3-LTC cells; details: BaF3-LTC, 16h treatment; for Dmax: maximum percentage of degradation, read-out: LTC Dmax (%); for DC50: read-out: LTC DC50
T2 construct: expressed in transfected cells; host or cells: BaF3
T2 sequence (P00533 25-1210 T790M/C797S/L858R): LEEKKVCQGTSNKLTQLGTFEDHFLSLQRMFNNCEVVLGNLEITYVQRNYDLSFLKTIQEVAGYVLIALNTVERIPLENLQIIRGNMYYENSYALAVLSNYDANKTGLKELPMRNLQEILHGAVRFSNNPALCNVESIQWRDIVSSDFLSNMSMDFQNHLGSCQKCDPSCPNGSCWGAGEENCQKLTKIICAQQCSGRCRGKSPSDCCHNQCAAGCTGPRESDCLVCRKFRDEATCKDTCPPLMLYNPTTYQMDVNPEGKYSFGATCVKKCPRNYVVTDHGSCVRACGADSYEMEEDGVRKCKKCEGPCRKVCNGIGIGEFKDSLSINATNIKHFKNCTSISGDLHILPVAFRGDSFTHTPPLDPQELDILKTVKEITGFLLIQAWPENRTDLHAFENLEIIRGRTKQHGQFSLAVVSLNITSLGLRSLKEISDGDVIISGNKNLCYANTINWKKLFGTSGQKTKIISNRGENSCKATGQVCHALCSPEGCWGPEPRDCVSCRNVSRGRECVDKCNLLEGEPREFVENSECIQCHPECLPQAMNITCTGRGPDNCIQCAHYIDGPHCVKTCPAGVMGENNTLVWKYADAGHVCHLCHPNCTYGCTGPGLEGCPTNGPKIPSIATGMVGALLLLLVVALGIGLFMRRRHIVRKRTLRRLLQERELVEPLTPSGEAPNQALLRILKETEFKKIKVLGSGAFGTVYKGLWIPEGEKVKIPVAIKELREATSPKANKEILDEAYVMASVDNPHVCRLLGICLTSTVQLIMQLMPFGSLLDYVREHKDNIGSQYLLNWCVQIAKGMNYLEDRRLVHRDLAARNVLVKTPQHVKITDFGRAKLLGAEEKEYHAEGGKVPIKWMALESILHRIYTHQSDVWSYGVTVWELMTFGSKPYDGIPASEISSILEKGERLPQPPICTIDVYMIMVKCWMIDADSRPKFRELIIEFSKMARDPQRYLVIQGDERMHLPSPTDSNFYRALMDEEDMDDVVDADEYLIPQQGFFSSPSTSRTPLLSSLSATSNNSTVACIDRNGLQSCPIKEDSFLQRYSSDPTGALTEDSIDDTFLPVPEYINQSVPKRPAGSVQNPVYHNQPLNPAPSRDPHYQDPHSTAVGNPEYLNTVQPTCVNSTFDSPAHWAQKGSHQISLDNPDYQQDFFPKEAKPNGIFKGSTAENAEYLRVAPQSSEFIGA
Summary of the method: as §1

[3] = molecular target: T3, EGFR WT (BaF3 WT cells) (Homo sapiens, UniProt P00533); assay: EGFR degradation HTRF assay, BaF3 WT cells; details: BaF3 WT, 16h treatment; for Dmax: maximum percentage of degradation, read-out: WT Dmax (%)
T3 construct: expressed in transfected cells; host or cells: BaF3
T3 sequence (P00533 25-1210): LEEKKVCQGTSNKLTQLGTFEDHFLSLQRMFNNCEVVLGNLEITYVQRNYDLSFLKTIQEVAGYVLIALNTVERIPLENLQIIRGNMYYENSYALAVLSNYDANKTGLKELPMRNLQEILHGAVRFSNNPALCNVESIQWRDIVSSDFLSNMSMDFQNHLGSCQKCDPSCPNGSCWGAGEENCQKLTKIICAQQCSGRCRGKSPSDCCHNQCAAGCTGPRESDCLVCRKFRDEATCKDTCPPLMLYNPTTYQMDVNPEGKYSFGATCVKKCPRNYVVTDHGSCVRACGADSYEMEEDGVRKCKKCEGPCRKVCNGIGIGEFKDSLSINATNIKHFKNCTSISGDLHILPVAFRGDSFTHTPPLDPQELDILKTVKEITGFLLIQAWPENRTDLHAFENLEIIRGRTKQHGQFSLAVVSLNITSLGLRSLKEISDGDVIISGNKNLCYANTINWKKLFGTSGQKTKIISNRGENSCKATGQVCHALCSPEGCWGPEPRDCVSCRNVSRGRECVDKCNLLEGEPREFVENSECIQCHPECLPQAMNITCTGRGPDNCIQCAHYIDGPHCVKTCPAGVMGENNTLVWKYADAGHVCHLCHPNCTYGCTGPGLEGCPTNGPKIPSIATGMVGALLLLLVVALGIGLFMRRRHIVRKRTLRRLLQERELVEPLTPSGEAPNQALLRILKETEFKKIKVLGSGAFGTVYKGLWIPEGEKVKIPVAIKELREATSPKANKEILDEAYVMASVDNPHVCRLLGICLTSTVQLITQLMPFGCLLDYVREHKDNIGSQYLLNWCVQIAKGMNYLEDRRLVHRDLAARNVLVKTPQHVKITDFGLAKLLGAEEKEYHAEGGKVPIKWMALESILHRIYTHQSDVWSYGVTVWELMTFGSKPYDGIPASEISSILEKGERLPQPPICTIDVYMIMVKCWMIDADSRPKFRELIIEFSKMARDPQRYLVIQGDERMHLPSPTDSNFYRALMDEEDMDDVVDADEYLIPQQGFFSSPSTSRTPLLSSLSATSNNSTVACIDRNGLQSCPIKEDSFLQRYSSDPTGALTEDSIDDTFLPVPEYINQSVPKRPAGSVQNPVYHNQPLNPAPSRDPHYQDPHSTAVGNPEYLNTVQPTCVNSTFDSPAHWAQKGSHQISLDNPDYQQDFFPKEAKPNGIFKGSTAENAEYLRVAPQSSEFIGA
Experimental: BaF3 WT(wild type), BaF3-LTC(L858R/T790M/C797S) and BaF3-DTC(Del19/T790M/C797S) cells are treated with compounds diluted in 0.2% DMSO cell culture medium and incubate for 16h, 37° C., 5% CO2, H1975-#36, H1975-#28, H1975-#23 and HCC827 cells are treated with compounds diluted in 0.2% DMSO cell culture medium on day 2, incubate for 16h, 37° C., 5% CO2.the final concentriation of compounds in all assay is start with 10 uM, 5-fold dilution, total 8 doses were included.
After 16h treatment, add HTRF lysis buffer to each well; seal the plate and incubate 1 hour at room temperature on a plate shaker; Once the cells are lysed, 16 μL of cell lysate are transferred to a PE 384-well HTRF detection plate; 4 μL of pre-mixed HTRF antibodies are added to each well; Cover the plate with a plate sealer, spin 1000 rpm for 1 min, Incubate overnight at room temperature; Read on BMG PheraStar with HTRF protocol (337 nm-665 nm-620 nm).
The inhibition (degradation) percentage of the compound was calculated by the following equation: Inhibition percentage of Compound=100-100×(Signal-low control)/(High control-low control), wherein signal=each test compound group
High control=Cell group with added DMSO and without compound, indicating microplate readings without EGFR degradation;
Dmax is the maximum percentage of inhibition (degradation).
The IC50 (DC50) value of a compound can be obtained by fitting the following equation
Y=Bottom+(TOP−Bottom)/(1+((IC50/X)^hillslope))
Wherein, X and Y are known values, and IC50, Hillslope, Top and Bottom are the parameters obtained by fitting with software. Y is the inhibition percentage (calculated from the equation), X is the concentration of the compound; IC50 is the concentration of the compound when the 50% inhibition is reached. The smaller the IC50 value is, the stronger the inhibitory ability of the compound is. Vice versa, the higher the IC50 value is, the weaker the inhibitory ability of the compound is; Hillslope represents the slope of the fitted curve, generally around 1*; Bottom represents the minimum value of the curve obtained by data fitting, which is generally 0%±20%; Top represents the maximum value of the curve obtained by data fitting, which is generally 100%±20%. The experimental data were fitted by calculating and analyzing with Dotmatics data analysis software.

[4] = test system: EGFR Del19/T790M/C797S (BaF3-DTC cells); assay: EGFR degradation HTRF assay, BaF3-DTC cells; details: 16h treatment; for DTC Dmax (%): maximum percentage of degradation; for DC50: read-out: DTC DC50
Summary of the method: as §1

[5] = molecular target: T4, EGFR L858R/T790M (H1975-clone #36, homozygous) (Homo sapiens, UniProt P00533, L858R/T790M); assay: EGFR degradation HTRF assay, H1975-clone #36 cells; details: H1975 #36, 16h treatment; for Dmax: NCI-H1975, maximum percentage of degradation
T4 construct: designed to specifically target WT EGFR but preserve the L858R/T790M copy; host or cells: H1975-clone #36
T4 sequence (P00533 25-1210 T790M/L858R): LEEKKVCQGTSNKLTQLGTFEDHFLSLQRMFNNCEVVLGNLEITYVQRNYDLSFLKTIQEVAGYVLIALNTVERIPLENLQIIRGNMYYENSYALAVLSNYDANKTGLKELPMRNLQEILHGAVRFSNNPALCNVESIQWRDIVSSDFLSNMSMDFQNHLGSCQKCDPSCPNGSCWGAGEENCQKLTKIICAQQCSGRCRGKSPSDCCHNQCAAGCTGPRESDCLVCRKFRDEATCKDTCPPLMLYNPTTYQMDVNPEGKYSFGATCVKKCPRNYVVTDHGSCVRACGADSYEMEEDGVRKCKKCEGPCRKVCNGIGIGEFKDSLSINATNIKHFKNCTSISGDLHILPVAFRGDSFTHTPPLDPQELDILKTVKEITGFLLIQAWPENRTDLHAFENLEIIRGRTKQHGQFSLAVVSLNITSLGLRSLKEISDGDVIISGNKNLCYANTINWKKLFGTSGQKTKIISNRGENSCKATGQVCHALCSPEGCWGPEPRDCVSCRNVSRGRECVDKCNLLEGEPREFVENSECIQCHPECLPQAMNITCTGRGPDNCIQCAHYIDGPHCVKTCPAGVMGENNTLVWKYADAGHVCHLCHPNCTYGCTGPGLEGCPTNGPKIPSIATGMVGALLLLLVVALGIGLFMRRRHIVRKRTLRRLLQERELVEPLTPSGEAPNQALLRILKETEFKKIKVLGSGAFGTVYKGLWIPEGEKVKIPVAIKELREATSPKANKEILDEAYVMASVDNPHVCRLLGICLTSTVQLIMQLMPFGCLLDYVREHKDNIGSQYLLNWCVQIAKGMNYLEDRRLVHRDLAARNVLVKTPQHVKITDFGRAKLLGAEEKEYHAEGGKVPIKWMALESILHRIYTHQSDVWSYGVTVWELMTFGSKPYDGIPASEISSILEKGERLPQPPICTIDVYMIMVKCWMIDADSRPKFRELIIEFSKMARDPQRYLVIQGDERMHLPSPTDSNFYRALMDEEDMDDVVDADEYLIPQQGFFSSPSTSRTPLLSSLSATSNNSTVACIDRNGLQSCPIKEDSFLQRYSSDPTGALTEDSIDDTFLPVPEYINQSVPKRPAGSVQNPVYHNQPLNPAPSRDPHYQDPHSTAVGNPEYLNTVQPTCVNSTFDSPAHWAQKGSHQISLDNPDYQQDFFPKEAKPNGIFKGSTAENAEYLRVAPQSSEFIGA
Summary of the method: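 Eight-point, 5-fold series starting at 10 uM (0.2% DMSO) applied for 16 h, 37 °C, to a WT-EGFR-knockout H1975 clone carrying only L858R/T790M. Lysates read by HTRF overnight. Degradation percentage relative to DMSO control fitted for DC50, with Dmax as maximum degradation.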

T1 sequence (P00533 with tags, fused parts or gaps DEL746-750): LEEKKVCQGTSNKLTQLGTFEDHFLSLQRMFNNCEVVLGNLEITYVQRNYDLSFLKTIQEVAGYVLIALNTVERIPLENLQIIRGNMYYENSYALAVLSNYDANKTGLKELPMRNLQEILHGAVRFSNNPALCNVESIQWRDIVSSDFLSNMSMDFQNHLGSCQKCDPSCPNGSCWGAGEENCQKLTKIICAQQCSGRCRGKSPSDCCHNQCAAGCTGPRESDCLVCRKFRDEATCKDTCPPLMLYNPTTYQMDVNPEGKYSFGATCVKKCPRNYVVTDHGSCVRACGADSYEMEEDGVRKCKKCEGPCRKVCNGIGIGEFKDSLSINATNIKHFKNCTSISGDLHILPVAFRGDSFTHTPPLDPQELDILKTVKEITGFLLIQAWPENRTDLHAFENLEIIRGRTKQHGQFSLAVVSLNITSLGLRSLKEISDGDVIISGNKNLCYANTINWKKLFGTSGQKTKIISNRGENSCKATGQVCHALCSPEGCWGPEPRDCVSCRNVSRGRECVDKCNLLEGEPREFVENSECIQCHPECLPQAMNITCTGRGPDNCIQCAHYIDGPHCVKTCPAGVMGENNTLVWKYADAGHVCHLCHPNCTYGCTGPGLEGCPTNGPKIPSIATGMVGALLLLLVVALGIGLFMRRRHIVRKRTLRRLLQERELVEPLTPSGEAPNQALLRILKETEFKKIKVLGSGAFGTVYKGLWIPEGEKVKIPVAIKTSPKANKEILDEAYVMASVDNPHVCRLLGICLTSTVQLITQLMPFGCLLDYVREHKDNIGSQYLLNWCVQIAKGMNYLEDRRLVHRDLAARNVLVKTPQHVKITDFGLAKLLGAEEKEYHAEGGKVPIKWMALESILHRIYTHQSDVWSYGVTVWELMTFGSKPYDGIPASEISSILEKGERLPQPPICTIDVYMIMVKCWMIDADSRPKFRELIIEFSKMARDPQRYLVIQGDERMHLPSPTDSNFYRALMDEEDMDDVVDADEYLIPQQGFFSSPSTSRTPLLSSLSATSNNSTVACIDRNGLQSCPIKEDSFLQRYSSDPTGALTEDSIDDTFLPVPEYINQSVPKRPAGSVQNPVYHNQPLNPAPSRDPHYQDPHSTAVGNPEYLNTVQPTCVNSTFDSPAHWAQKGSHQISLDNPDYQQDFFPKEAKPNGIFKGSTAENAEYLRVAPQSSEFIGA

Row | Compound | DC50 [1] [µM] | Dmax [1] [%] | Dmax [2] [%] | DC50 [2] [µM] | DC50 [3] [µM] | Dmax [3] [%] | DC50 [4] [µM] | DC50 [5] [µM] | Dmax [5] [%] | DTC Dmax (%) [4] [%]
1 | CCc1cc(Nc2ncc(Br)c(Nc3ccc4nccnc4c3P(C)(C)=O)n2)c(OC)cc1N1CCC(N2CCN(CCCN3CCN(c4ccc5c(c4)C(=O)N(C4CCC(=O)NC4=O)C5=O)CC3)CC2)CC1 (centres unmarked) [Example 60, 5-(4-(3-(4-(1-(4-((5-bromo-4-((5-(dimethylphosphoryl)quinoxalin-6-yl)amino)pyrimidin-2-yl)amino)-2-ethyl-5-methoxyphenyl)piperidin-4-yl)piperazin-1-yl)propyl)piperazin-1-yl)-2-(2,6-dioxopiperidin-3-yl)isoindoline-1,3-dione] | 0.0048 | 86.8 | 91.2 | 0.089 | 8.86 | 51.6 | 0.0422 | 0.0165 | 73.4 | 94.93
2 | COc1cc(N2CCC(N3CCN(C(=O)C4CCN(CC5CCN(c6ccc7c(c6)C(=O)N(C6CCC(=O)NC6=O)C7=O)CC5)CC4)CC3)CC2)ccc1Nc1ncc(Cl)c(Nc2ccccc2P(C)(C)=O)n1 (centres unmarked) [Example 113, 5-(4-((4-(4-(1-(4-((5-chloro-4-((2-(dimethylphosphoryl)phenyl)amino)pyrimidin-2-yl)amino)-3-methoxyphenyl)piperidin-4-yl)piperazine-1-carbonyl)piperidin-1-yl)methyl)piperidin-1-yl)-2-(2,6-dioxopiperidin-3-yl)isoindoline-1,3-dione] | 0.00334 | 89.2 | 91 | 0.0772 | > 10 | 29.1 | 0.0151 | 0.0053 | 97.3 | 99.16
3 | CP(C)(=O)c1c(Nc2nc(Nc3ccc(N4CCN(C5CN(CC6CN(c7ccc8c(c7)C(=O)N(C7CCC(=O)NC7=O)C8=O)C6)C5)CC4)c(F)c3)ncc2Br)ccc2nccnc12 (centres unmarked) [Example 259, 5-(3-((3-(4-(4-((5-bromo-4-((5-(dimethylphosphoryl)quinoxalin-6-yl)amino)pyrimidin-2-yl)amino)-2-fluorophenyl)piperazin-1-yl)azetidin-1-yl)methyl)azetidin-1-yl)-2-(2,6-dioxopiperidin-3-yl)isoindoline-1,3-dione] | 0.00533 | 81 | 92.1 | 0.00704 | > 10 | 11.7 | 0.00372 | 0.00469 | 99.9 | 95.97

Now those with a lower DC50 [1], led by results:

Row | DC50 [1] [µM] | Dmax [1] [%] | Dmax [2] [%] | DC50 [2] [µM] | DC50 [3] [µM] | Dmax [3] [%] | DC50 [4] [µM] | DC50 [5] [µM] | Dmax [5] [%] | Compound | DTC Dmax (%) [4] [%]
4 | 0.0032 | 84 | 86.2 | 0.168 | > 10 | 15.3 | 0.0537 | 0.0115 | 85 | COc1cc(N2CCC(N3CCN(C(=O)CCCCN4CCN(c5ccc6c(c5)C(=O)N(C5CCC(=O)NC5=O)C6=O)CC4)CC3)CC2)ccc1Nc1ncc(Cl)c(Nc2ccccc2N(C)S(C)(=O)=O)n1 (centres unmarked) [Example 128, N-(2-((5-chloro-2-((4-(4-(4-(5-(4-(2-(2,6-dioxopiperidin-3-yl)-1,3-dioxoisoindolin-5-yl)piperazin-1-yl)pentanoyl)piperazin-1-yl)piperidin-1-yl)-2-methoxyphenyl)amino)pyrimidin-4-yl)amino)phenyl)-N-methylmethanesulfonamide] | 99.67
5 | 0.00256 | 83.9 | 90.4 | 0.0131 | > 10 | 47.9 | 0.00496 | 0.00466 | 84.1 | CCc1cc(Nc2ncc(Br)c(Nc3ccc4nccnc4c3P(C)(C)=O)n2)c(OC)cc1N1CCC(N2CCN(CCc3ccc(C4CCC(=O)NC4=O)c(F)c3)CC2)CC1 (centres unmarked) [Example 5, 3-(4-(2-(4-(1-(4-((5-bromo-4-((5-(dimethylphosphoryl)quinoxalin-6-yl)amino)pyrimidin-2-yl)amino)-2-ethyl-5-methoxyphenyl)piperidin-4-yl)piperazin-1-yl)ethyl)-2-fluorophenyl)piperidine-2,6-dione] | 96.75

Source: patent publication US20230265116A1, “DEGRADATION OF (EGFR) BY CONJUGATION OF EGFR INHIBITORS WITH E3 LIGASE LIGAND AND METHODS OF USE” (BEIGENE, LTD., priority 2020, published 2023)
